How the values were obtained:
Assay in all cases: Enzyme Assay
PIK3CA (human) = PIK3CA (human) (UniProt P42336)
PIK3CB (Human) = PIK3CB (Human) (UniProt P42338)
PIK3CD (Human) = PIK3CD (Human) (UniProt O00329)
PIK3CG (human) = PIK3CG (human) (UniProt P48736)
Chain of PIK3CG (human) (P48736 whole entry, looked up): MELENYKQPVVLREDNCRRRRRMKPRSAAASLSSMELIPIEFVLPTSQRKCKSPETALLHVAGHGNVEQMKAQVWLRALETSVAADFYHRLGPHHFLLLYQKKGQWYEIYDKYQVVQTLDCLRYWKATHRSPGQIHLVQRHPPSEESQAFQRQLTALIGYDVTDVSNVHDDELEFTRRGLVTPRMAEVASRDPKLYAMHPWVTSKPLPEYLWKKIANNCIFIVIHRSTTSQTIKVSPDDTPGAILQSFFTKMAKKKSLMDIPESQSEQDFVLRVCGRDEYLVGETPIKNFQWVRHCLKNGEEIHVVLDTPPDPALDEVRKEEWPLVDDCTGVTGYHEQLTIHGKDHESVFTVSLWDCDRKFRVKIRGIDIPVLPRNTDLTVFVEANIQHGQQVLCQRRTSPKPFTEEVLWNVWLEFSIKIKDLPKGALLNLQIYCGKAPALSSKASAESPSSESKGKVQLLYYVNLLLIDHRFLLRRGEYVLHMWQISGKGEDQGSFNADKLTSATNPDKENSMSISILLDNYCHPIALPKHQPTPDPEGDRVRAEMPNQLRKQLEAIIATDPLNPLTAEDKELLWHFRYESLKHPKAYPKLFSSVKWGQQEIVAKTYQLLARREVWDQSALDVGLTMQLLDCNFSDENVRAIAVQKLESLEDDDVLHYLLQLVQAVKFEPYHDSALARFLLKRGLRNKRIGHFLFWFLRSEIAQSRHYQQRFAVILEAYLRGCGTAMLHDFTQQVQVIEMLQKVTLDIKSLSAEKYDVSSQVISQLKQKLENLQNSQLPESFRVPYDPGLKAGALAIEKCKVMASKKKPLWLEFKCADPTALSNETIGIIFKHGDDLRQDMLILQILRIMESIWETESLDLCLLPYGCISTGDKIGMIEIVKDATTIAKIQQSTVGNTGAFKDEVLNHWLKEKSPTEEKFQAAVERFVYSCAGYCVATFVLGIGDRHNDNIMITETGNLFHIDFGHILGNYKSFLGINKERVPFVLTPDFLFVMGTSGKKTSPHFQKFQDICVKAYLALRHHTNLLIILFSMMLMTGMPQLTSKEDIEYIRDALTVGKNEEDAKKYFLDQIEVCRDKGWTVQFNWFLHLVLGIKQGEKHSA

Chain of PIK3CB (Human) (P42338 whole entry, looked up): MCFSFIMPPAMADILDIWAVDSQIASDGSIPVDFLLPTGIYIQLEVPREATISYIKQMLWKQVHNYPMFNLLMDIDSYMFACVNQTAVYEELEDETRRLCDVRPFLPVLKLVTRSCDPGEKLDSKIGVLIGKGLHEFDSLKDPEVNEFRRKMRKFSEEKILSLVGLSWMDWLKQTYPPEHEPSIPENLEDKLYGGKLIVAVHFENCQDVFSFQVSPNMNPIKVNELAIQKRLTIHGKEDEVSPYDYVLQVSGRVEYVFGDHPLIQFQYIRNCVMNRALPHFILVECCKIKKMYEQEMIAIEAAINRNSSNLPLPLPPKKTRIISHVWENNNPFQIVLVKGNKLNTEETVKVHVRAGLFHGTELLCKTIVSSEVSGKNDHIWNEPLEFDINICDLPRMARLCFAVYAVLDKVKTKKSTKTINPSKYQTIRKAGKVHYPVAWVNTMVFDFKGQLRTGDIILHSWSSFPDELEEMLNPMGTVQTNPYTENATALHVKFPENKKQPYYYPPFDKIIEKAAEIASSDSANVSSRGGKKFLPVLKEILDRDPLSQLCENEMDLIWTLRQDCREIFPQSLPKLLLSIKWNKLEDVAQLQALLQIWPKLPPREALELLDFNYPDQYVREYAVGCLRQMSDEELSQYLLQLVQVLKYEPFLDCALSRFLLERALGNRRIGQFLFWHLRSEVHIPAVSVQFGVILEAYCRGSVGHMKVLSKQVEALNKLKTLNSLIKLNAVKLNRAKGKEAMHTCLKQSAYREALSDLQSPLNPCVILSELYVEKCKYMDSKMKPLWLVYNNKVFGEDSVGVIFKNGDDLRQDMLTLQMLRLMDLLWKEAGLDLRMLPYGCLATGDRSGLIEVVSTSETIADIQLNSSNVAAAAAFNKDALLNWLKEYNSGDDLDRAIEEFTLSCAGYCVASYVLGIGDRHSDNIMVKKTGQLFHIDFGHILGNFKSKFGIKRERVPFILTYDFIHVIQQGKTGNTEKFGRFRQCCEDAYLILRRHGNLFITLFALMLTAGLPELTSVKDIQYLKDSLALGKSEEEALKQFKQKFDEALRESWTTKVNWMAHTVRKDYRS
Chain of PIK3CA (human) (P42336 whole entry, looked up): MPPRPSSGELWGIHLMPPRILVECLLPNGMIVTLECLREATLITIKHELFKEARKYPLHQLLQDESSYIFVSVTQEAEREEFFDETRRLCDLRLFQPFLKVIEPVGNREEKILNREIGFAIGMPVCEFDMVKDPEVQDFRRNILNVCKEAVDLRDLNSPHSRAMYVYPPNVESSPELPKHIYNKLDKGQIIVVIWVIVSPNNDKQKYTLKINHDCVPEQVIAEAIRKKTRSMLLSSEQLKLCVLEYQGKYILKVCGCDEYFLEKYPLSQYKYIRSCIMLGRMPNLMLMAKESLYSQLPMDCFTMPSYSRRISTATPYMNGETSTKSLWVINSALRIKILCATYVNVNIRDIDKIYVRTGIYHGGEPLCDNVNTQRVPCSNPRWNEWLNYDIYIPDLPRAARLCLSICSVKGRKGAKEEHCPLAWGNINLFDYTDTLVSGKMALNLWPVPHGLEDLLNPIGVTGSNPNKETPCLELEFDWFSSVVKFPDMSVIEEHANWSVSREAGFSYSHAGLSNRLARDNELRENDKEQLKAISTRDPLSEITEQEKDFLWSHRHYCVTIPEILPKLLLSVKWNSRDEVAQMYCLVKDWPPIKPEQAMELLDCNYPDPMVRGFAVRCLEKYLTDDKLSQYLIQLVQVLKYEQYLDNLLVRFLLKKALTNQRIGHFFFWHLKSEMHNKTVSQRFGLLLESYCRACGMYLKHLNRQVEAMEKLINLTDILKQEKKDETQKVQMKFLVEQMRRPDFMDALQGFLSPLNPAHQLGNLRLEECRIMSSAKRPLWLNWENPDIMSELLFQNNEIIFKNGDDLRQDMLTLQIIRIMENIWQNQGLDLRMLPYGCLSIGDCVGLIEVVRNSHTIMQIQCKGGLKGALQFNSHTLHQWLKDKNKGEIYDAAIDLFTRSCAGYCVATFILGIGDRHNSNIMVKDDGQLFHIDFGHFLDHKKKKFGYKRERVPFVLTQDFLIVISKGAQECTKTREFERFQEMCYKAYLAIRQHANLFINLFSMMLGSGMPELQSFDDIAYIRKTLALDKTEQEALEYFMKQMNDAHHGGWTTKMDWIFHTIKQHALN
Chain of PIK3CD (Human) (O00329 whole entry, looked up): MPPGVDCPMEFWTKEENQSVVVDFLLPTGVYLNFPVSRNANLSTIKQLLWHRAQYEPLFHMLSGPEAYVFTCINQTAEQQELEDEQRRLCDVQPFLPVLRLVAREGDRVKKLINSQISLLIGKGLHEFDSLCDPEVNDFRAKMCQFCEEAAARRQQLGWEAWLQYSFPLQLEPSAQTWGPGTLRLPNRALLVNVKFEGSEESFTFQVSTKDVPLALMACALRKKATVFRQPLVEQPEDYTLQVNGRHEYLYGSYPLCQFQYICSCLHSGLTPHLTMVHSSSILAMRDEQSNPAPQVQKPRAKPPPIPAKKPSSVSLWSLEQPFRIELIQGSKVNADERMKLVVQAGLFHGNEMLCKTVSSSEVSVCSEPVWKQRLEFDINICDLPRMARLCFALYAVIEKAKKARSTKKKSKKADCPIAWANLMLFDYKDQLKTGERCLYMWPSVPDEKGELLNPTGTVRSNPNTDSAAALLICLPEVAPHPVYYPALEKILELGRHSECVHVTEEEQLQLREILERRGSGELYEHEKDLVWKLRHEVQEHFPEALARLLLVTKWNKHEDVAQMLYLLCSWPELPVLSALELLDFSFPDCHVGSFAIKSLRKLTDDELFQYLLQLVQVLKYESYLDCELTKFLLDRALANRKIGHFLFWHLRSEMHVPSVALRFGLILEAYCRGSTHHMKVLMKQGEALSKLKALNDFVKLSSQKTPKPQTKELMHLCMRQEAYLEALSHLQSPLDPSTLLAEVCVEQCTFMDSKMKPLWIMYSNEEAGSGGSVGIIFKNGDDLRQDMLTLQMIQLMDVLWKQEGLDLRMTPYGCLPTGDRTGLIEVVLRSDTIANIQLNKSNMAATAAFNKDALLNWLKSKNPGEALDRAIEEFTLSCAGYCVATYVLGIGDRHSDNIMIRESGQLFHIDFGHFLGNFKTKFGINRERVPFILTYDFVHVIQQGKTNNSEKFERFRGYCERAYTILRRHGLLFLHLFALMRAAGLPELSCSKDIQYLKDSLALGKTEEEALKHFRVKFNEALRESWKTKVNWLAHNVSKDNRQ

| IC50 (PIK3CA (human)) | IC50 (PIK3CB (Human)) | IC50 (PIK3CD (Human)) | IC50 (PIK3CG (human)) | Structure (SMILES) |
| --- | --- | --- | --- | --- |
| > 10000 nM | > 10000 nM | 100 to 1000 nM | – | Cc1ccccc1-n1c(Cn2nc(-c3ccn[nH]3)c3c(N)ncnc32)cc2cccc(C)c2c1=O |
| > 10000 nM | > 10000 nM | 100 to 1000 nM | – | Cc1ccccc1-n1c(Cn2nc(-c3cn[nH]c3)c3c(N)ncnc32)cc2ccccc2c1=O |
| > 10000 nM | – | – | 100 to 1000 nM | Cc1cccc2cc(Cn3nc(-c4cccc(O)c4)c4c(N)ncnc43)n(C3CCCC3)c(=O)c12 |
| > 10000 nM | – | – | 100 to 1000 nM | Cc1cccc2cc(Cn3nc(-c4cn[nH]c4)c4c(N)ncnc43)n(-c3ccccc3F)c(=O)c12 |
| 100 to 1000 nM | < 100 nM | < 100 nM | – | Cc1cccc2cc([C@H](C)Nc3ncnc4[nH]cc(C#N)c34)n(C3CC3)c(=O)c12 |
| 100 to 1000 nM | < 100 nM | < 100 nM | – | Cc1cccc2cc([C@H](C)Nc3ncnc4[nH]cc(Cl)c34)n(-c3ccccc3)c(=O)c12 |
| 100 to 1000 nM | < 100 nM | < 100 nM | – | Cc1cccc2cc([C@H](C)Nc3ncnc4[nH]cc(C#N)c34)n(-c3ccccc3)c(=O)c12 |
| > 10000 nM | > 10000 nM | 100 to 1000 nM | – | Cc1ccccc1-n1c(Cn2nc(CCC(N)=O)c3c(N)ncnc32)cc2cccc(C)c2c1=O |
| > 10000 nM | – | – | 100 to 1000 nM | Cc1ccccc1-n1c(Cn2nc(-c3cccc(O)c3)c3c(N)ncnc32)cc2ccccc2c1=O |
| > 10000 nM | > 10000 nM | > 10000 nM | – | Cc1cccc2cc([C@H](C)Nc3ncnc4[nH]c(O)nc34)n(-c3ccccc3)c(=O)c12 |
| > 10000 nM | > 10000 nM | 100 to 1000 nM | – | COc1cc(F)cc(-c2nn(Cc3cc4cccc(C)c4c(=O)n3-c3ccccc3C)c3ncnc(N)c23)c1 |
| > 10000 nM | 100 to 1000 nM | < 100 nM | – | Cc1cccc2cc([C@H](C)Nc3ncnc4[nH]cnc34)n(-c3cccc(F)c3)c(=O)c12 |
| > 10000 nM | > 10000 nM | 100 to 1000 nM | – | Cc1cccc2cc(Cn3nc(I)c4c(N)ncnc43)n(C3CCCCC3)c(=O)c12 |
| > 10000 nM | > 10000 nM | 100 to 1000 nM | – | COc1ccc(-c2nn(Cc3cc4cccc(C)c4c(=O)n3-c3ccccc3C)c3ncnc(N)c23)cc1OC |
| > 10000 nM | > 10000 nM | 100 to 1000 nM | – | Cc1cccc2cc(Cn3nc(-c4ccc(O)c(F)c4)c4c(N)ncnc43)n(-c3ccccc3F)c(=O)c12 |
| 100 to 1000 nM | 100 to 1000 nM | < 100 nM | – | Cc1cccc2cc(Cn3nc(-c4ccc5sc(N)nc5c4)c4c(N)ncnc43)n(-c3ccccc3)c(=O)c12 |
| < 100 nM | 100 to 1000 nM | < 100 nM | – | Cc1cccc2cc(Cn3nc(-c4ccc5nc(N)sc5c4)c4c(N)ncnc43)n(-c3ccccc3)c(=O)c12 |
| 100 to 1000 nM | < 100 nM | < 100 nM | – | Cc1cccc2cc([C@H](C)Nc3nc(N)nc4[nH]cnc34)n(-c3ccccc3)c(=O)c12 |
| > 10000 nM | > 10000 nM | > 10000 nM | – | Cc1cccc2cc([C@H](C)Nc3ncnc4[nH]c(Cl)nc34)n(-c3ccccc3)c(=O)c12 |
| > 10000 nM | > 10000 nM | < 100 nM | – | CCC(Nc1ncnc2[nH]cnc12)c1cc2cccc(C)c2c(=O)n1-c1cc(F)cc(F)c1 (centres undefined) |
| 100 to 1000 nM | 100 to 1000 nM | < 100 nM | – | Cc1ccccc1-n1c(Cn2nc(-c3ccc4sc(N)nc4c3)c3c(N)ncnc32)cc2cccc(C)c2c1=O |
| > 10000 nM | > 10000 nM | 100 to 1000 nM | – | Cc1ccccc1-n1c(Cn2nc(C#C[C@@H](C)O)c3c(N)ncnc32)cc2cccc(F)c2c1=O |
| > 10000 nM | > 10000 nM | < 100 nM | – | CC(=O)Nc1nc2ccc(-c3nn(Cc4cc5cccc(C)c5c(=O)n4-c4ccccc4C)c4ncnc(N)c34)cc2o1 |

| IC50 (PIK3CA (human)) | IC50 (PIK3CB (Human)) | IC50 (PIK3CD (Human)) | IC50 (PIK3CG (human)) | Structure (SMILES) |
| --- | --- | --- | --- | --- |
| – | – | – | 100 to 1000 nM | Cc1cccc2cc(Cn3nc(-c4cc(O)cc(F)c4)c4c(N)ncnc43)n(-c3ccccc3OCCN3CCOCC3)c(=O)c12 |
| > 10000 nM | > 10000 nM | > 10000 nM | – | Cc1cccc2cc(Cn3nc(C4=CCOCC4)c4c(N)ncnc43)n(-c3ccccc3)c(=O)c12 |
| > 10000 nM | > 10000 nM | > 10000 nM | – | Cc1cccc2cc([C@H](C)Nc3ncnc4[nH]c(Cl)nc34)n(C3CC3)c(=O)c12 |
| 100 to 1000 nM | < 100 nM | < 100 nM | – | Cc1cccc2cc(C(C)Nc3nc(N)nc4[nH]cnc34)n(-c3ccccc3)c(=O)c12 (centres undefined) |
| > 10000 nM | > 10000 nM | 100 to 1000 nM | – | Cc1cccc2cc([C@H](C)Nc3nc(Cl)ncc3Cl)n(-c3ccccc3)c(=O)c12 |
| > 10000 nM | > 10000 nM | 100 to 1000 nM | – | Cc1cccc2cc(Cn3nc(-c4ccc(O)c(Cl)c4)c4c(N)ncnc43)n(-c3ccccc3F)c(=O)c12 |
| > 10000 nM | > 10000 nM | 100 to 1000 nM | – | Cc1cccnc1-n1c(Cn2nc(C#C[C@@H](C)O)c3c(N)ncnc32)cc2cccc(C)c2c1=O |
| > 10000 nM | > 10000 nM | > 10000 nM | – | Cc1cccc2cc([C@H](C)Nc3cc(N)nc(Cl)n3)n(C3CC3)c(=O)c12 |
| > 10000 nM | 100 to 1000 nM | < 100 nM | – | Cc1cccc2cc(C(C)Nc3ncnc4[nH]cnc34)n(C3CCN(C)CC3)c(=O)c12 (centres undefined) |
| > 10000 nM | > 10000 nM | 100 to 1000 nM | – | C=Cc1nn(Cc2cc3cccc(C)c3c(=O)n2-c2ccccc2F)c2ncnc(N)c12 |
| > 10000 nM | > 10000 nM | < 100 nM | – | CCc1nn(Cc2cc3cccc(C)c3c(=O)n2-c2ccccc2C)c2ncnc(N)c12 |
| > 10000 nM | > 10000 nM | 100 to 1000 nM | – | Nc1ncnc2c1c(-c1cn[nH]c1)nn2Cc1cc2cccc(F)c2c(=O)n1-c1ccccc1F |
| > 10000 nM | > 10000 nM | 100 to 1000 nM | – | COc1cc(-c2nn(Cc3cc4cccc(C)c4c(=O)n3-c3ccccc3C)c3ncnc(N)c23)ccc1Cl |
| 100 to 1000 nM | < 100 nM | < 100 nM | – | Cc1cccc2cc([C@H](C)Nc3ncnc4[nH]cc(Br)c34)n(-c3ccccc3)c(=O)c12 |
| > 10000 nM | > 10000 nM | > 10000 nM | – | Cc1cccc2cc([C@@H](C)Nc3ncnc4[nH]cnc34)n(C3CCC3)c(=O)c12 |
| 100 to 1000 nM | < 100 nM | < 100 nM | – | C[C@H](Nc1ncnc2[nH]cnc12)c1cc2cccc(Cl)c2c(=O)n1C1CC1 |
| – | – | – | 100 to 1000 nM | Cc1cccc2cc(Cn3nc(-c4ccc(O)cc4)c4c(N)ncnc43)n(-c3ccccc3F)c(=O)c12 |
| 100 to 1000 nM | 100 to 1000 nM | < 100 nM | – | Cc1cccc2cc(Cn3nc(-c4ccc5oc(N)nc5c4)c4c(N)ncnc43)n(C3CCC3)c(=O)c12 |
| 100 to 1000 nM | < 100 nM | < 100 nM | – | Cc1cccc2cc([C@H](C)Nc3ncnc4[nH]cc(C(N)=O)c34)n(-c3ccccc3)c(=O)c12 |
| 100 to 1000 nM | < 100 nM | < 100 nM | – | Cc1cccc2cc([C@H](C)Nc3ncnc4[nH]cc(F)c34)n(C3CC3)c(=O)c12 |
| – | – | – | 100 to 1000 nM | Cc1cccc2cc(Cn3nc(I)c4c(N)ncnc43)n(-c3ccccc3F)c(=O)c12 |
| > 10000 nM | > 10000 nM | > 10000 nM | – | Cc1cccc2cc([C@H](C)NC3CCOCC3)n(-c3ccccc3)c(=O)c12 |

| Structure (SMILES) | IC50 (PIK3CA (human)) | IC50 (PIK3CB (Human)) | IC50 (PIK3CD (Human)) | IC50 (PIK3CG (human)) |
| --- | --- | --- | --- | --- |
| COC(=O)c1nn(Cc2cc3cccc(C)c3c(=O)n2-c2ccccc2C)c2ncnc(N)c12 | > 10000 nM | > 10000 nM | 100 to 1000 nM | – |

— the Kinase Knowledgebase extract (Sharma et al. 2016)
